Source: US20250320213A1, “Nitrogen-Containing Heterocyclic Compounds” (Pfizer Inc., priority 2024, published 2025)
Like-named read-outs stand apart in the source and are kept apart here.

Target: T1, STAT6 (Homo sapiens, UniProt P42226)
T1 construct: stably transfected HaCaT keratinocyte cell line, which expresses NanoLuc luciferase reporter gene under the transcriptional control of the STAT6 responsive promoter; endogenous in cells; host or cells: HaCaT keratinocyte reporter cell line (stably transfected with a NanoLuc reporter)
T1 sequence (P42226 1-847): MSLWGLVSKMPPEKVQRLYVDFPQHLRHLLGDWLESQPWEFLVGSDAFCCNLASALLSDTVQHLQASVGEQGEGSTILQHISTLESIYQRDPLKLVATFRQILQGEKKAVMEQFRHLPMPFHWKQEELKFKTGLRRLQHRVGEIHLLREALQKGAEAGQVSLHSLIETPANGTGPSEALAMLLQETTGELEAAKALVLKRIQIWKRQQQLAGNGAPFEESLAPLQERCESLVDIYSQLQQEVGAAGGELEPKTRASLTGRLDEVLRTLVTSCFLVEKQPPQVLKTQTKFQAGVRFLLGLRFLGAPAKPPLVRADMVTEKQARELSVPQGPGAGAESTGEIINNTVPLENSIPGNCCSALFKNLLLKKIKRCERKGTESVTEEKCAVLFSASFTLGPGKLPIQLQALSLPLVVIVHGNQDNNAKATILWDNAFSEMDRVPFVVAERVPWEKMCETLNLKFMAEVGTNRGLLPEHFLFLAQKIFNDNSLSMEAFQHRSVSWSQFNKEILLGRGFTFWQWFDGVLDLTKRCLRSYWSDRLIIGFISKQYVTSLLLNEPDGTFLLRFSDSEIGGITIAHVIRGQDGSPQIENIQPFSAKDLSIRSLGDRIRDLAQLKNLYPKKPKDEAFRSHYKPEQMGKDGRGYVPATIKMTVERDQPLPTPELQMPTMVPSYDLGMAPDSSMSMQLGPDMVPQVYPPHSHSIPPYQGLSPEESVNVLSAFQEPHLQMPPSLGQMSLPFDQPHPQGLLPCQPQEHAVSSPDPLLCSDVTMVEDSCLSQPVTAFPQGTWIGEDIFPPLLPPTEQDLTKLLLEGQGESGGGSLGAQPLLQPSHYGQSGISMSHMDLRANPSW
Test: STAT6 Reporter Luciferase Assay (IL-13 stimulated HaCaT keratinocyte NanoLuc reporter cells)
Format: cell-based
Settings: read-out: Reporter EC50
Protocol: Pharmacological measurements of STAT6 transcriptional activity through the IL-13-IL-13 receptor/IL-4 receptor pathway were made with a stably transfected HaCaT keratinocyte cell line, which expresses NanoLuc luciferase reporter gene under the transcriptional control of the STAT6 responsive promoter for IL-13Ra2. The readout of the STAT6 activity utilized Promega Nano-Glo Luciferase assay kit.
The reporter cells were cultured in a growth media comprised of DMEM High Glucose, no calcium and no glutamine, 10% heat inactivated fetal bovine serum (HI FBS), 1% 100× Glutamax, and 100 U/mL Penicillin-Streptomycin (units of penicillin in 1 mL of streptomycin). Seven thousand cells were plated in 25 microliter (μL) per well in a 384-well, white bottom, tissue culture plate. Cells were cultured overnight at 37° C. The next day, test compounds (solubilized and serially diluted in DMSO, in an 11 point, 4-fold dilution series in duplicate) were spotted, 60 nanoliters (nL) per well, into a 384 well v-bottom polypropylene plate. Thirty μL per well of 37° C. dosing media (Dulbecco's modified eagle medium (DMEM) High Glucose, no calcium and no glutamine with 2% HI FBS) was added to the compound plate. Growth media was removed from the cell plate, and the cells were washed with DPBS. Twenty μL per well of compounds diluted in dosing media were transferred from the compound plate to the cell plate and the compounds were further diluted with an additional 15 μL of dosing media in the cell plate: the cell plate was incubated for two hours at 37° C. After two hours, STAT6 activity was stimulated with the addition of 5 μL per well of IL-13 (R&D Systems) in dosing media with a final concentration of 0.12 nM IL13. Cells were incubated at 37° C. for 4 hours to allow for reporter gene expression, then all media was removed from the plate. The cell plates were treated with assay buffer and Luciferase substrate from Nano-Glo Luciferase Assay Kit for 15 min and then measured for luminescence on an EnVision 2105 multilabel reader (PerkinElmer).

[1] = IL-13 stimulated HaCaT STAT6 NanoLuc reporter cells
[2] = STAT6 NanoLuc luciferase reporter, IL-13 stimulated HaCaT keratinocyte cells

Row | SMILES | EC50 [1] | EC50 [2]
1 | COCCC1(N)CCN(C(=O)Nc2ccc(CNC(=O)c3nn(C(C)C)c4c3CN(c3ccc(C(=O)N(C)C)cc3)C[C@@H]4C)cc2)C1 (single isomer, unassigned) [Example 671, (S)-N-(4-((R*)-3-amino-3-(2-methoxyethyl)pyrrolidine-1-carboxamido)benzyl)-5-(4-(dimethylcarbamoyl)phenyl)-1-isopropyl-7-methyl-4,5,6,7-tetrahydro-1H-pyrazolo[4,3-c]pyridine-3-carboxamide] | 3 nM | –
2 | COCC1(N)CCN(C(=O)Nc2ccc(CNC(=O)c3nn(C(C)C)c4c3CN(c3ccc(C(=O)N(C)C)cc3)C[C@@H]4C)cc2)C1 (single isomer, unassigned) [Example 672, (S)-N-(4-((R*)-3-amino-3-(methoxymethyl)pyrrolidine-1-carboxamido)benzyl)-5-(4-(dimethylcarbamoyl)phenyl)-1-isopropyl-7-methyl-4,5,6,7-tetrahydro-1H-pyrazolo[4,3-c]pyridine-3-carboxamide] | 1 nM | –
3 | COCC1(N)CCN(C(=O)Nc2ccc(CNC(=O)c3nn(C(C)C)c4c3CN(c3ccc(C(=O)N(C)C)cc3)C[C@@H]4C)cc2)C1 (single isomer, unassigned) [Example 673, (S)-N-(4-((R*)-3-amino-3-(methoxymethyl)pyrrolidine-1-carboxamido)benzyl)-5-(4-(dimethylcarbamoyl)phenyl)-1-isopropyl-7-methyl-4,5,6,7-tetrahydro-1H-pyrazolo[4,3-c]pyridine-3-carboxamide] | 2 nM | –
4 | CC(C)n1nc(C(=O)NCc2ccc(NC(=O)N3CCN(C)CC3)cc2)c2c1C(C(F)(F)F)CN(c1ccc(C(=O)N(C)C)cn1)C2 (single isomer, unassigned) [Example 692, rel-(R or S)-5-(5-(dimethylcarbamoyl)pyridin-2-yl)-1-isopropyl-N-(4-(4-methylpiperazine-1-carboxamido)benzyl)-7-(trifluoromethyl)-4,5,6,7-tetrahydro-1H-pyrazolo[4,3-c]pyridine-3-carboxamide] | 0.3 nM | –
5 | CC(C)n1nc(C(=O)NCc2ccc(NC(=O)N3CCN(C)CC3)cc2)c2c1C(C(F)(F)F)CN(c1ccc(C(=O)N(C)C)cn1)C2 (single isomer, unassigned) [Example 693, rel-(R or S)-5-(5-(dimethylcarbamoyl)pyridin-2-yl)-1-isopropyl-N-(4-(4-methylpiperazine-1-carboxamido)benzyl)-7-(trifluoromethyl)-4,5,6,7-tetrahydro-1H-pyrazolo[4,3-c]pyridine-3-carboxamide] | 16 nM | –
6 | CCn1nc(C(=O)NCc2ccc(NC(=O)N3CCN(C)CC3)cc2)c2c1C(C(F)(F)F)CN(c1ccc(C(=O)N(C)C)cn1)C2 (single isomer, unassigned) [Example 694, rel-(R or S)-5-(5-(dimethylcarbamoyl)pyridin-2-yl)-1-ethyl-N-(4-(4-methylpiperazine-1-carboxamido)benzyl)-7-(trifluoromethyl)-4,5,6,7-tetrahydro-1H-pyrazolo[4,3-c]pyridine-3-carboxamide] | 0.3 nM | –
7 | CCn1nc(C(=O)NCc2ccc(NC(=O)N3CCN(C)CC3)cc2)c2c1C(C(F)(F)F)CN(c1ccc(C(=O)N(C)C)cn1)C2 (single isomer, unassigned) [Example 695, rel-(R or S)-5-(5-(dimethylcarbamoyl)pyridin-2-yl)-1-ethyl-N-(4-(4-methylpiperazine-1-carboxamido)benzyl)-7-(trifluoromethyl)-4,5,6,7-tetrahydro-1H-pyrazolo[4,3-c]pyridine-3-carboxamide] | 32 nM | –
8 | CC(C)n1nc(C(=O)NCc2ccc(NC(=O)N3CCN(C)CC3)cc2)c2c1C(C(F)(F)F)CN(c1ccc(C(=O)N(C)C)cc1)C2 (single isomer, unassigned) [Example 702, rel-(R or S)-5-(4-(dimethylcarbamoyl)phenyl)-1-isopropyl-N-(4-(4-methylpiperazine-1-carboxamido)benzyl)-7-(trifluoromethyl)-4,5,6,7-tetrahydro-1H-pyrazolo[4,3-c]pyridine-3-carboxamide] | 10 nM | –
9 | CC(C)n1nc(C(=O)NCc2ccc(NC(=O)N3CCN(C)CC3)cc2)c2c1C(C(F)(F)F)CN(c1ccc(C(=O)N(C)C)cc1)C2 (single isomer, unassigned) [Example 705, rel-(R or S)-5-(4-(dimethylcarbamoyl)phenyl)-1-isopropyl-N-(4-(4-methylpiperazine-1-carboxamido)benzyl)-7-(trifluoromethyl)-4,5,6,7-tetrahydro-1H-pyrazolo[4,3-c]pyridine-3-carboxamide] | 0.2 nM | –
10 | CCn1nc2c(c1C(=O)NCc1ccc(NC(=O)N(C)C)cc1)CN(c1ccc(C(=O)N(C)C)cn1)[C@@H](C)[C@@H]2C (stereo in doubt) [Example 316, rel-(6S,7S)-5-(5-(dimethylcarbamoyl)pyridin-2-yl)-N-(4-(3,3-dimethylureido)benzyl)-2-ethyl-6,7-dimethyl-4,5,6,7-tetrahydro-2H-pyrazolo[4,3-c]pyridine-3-carboxamide] | 3770 nM | –
11 | CCn1nc2c(c1C(=O)NCc1ccc(NC(=O)N(C)C)cc1)CN(c1ccc(C(=O)N(C)C)cn1)[C@H](C)[C@H]2C (stereo in doubt) [Example 317, rel-(6R,7R)-5-(5-(dimethylcarbamoyl)pyridin-2-yl)-N-(4-(3,3-dimethylureido)benzyl)-2-ethyl-6,7-dimethyl-4,5,6,7-tetrahydro-2H-pyrazolo[4,3-c]pyridine-3-carboxamide] | 355 nM | –
12 | CC(C)n1nc(C(=O)NCc2ccc(NC(=O)N3CCC(CC#N)CC3)cc2)c2c1CCN(c1ccc(C(=O)N(C)C)cn1)C2 [Example 149, N-(4-(4-(cyanomethyl)piperidine-1-carboxamido)benzyl)-5-(5-(dimethylcarbamoyl)pyridin-2-yl)-1-isopropyl-4,5,6,7-tetrahydro-1H-pyrazolo[4,3-c]pyridine-3-carboxamide] | – | 5 nM
13 | CC(C)n1nc(C(=O)NCc2ccc(NC(=O)N3CCCC(N(C)C)C3)cc2)c2c1CCN(c1ccc(C(=O)N(C)C)cn1)C2 (stereo not shown) [Example 151, N-(4-(3-(dimethylamino)piperidine-1-carboxamido)benzyl)-5-(5-(dimethylcarbamoyl)pyridin-2-yl)-1-isopropyl-4,5,6,7-tetrahydro-1H-pyrazolo[4,3-c]pyridine-3-carboxamide] | – | 9 nM
14 | CC(C)n1nc(C(=O)NCc2ccc(NC(=O)N3CC4CC4C3)cc2)c2c1CCN(c1ccc(C(=O)N(C)C)cn1)C2 (stereo not shown) [Example 186, N-(4-(3-azabicyclo[3.1.0]hexane-3-carboxamido)benzyl)-5-(5-(dimethylcarbamoyl)pyridin-2-yl)-1-isopropyl-4,5,6,7-tetrahydro-1H-pyrazolo[4,3-c]pyridine-3-carboxamide] | 10 nM | –
15 | CC(=O)N[C@H]1CCN(C(=O)c2ccc(N3CCc4c(c(C(=O)NCc5ccc(NC(=O)N(C)C)cc5)nn4C(C)C)C3)nc2)C1 [Example 193, (S)-5-(5-(3-Acetamidopyrrolidine-1-carbonyl)pyridin-2-yl)-N-(4-(3,3-dimethylureido)benzyl)-1-isopropyl-4,5,6,7-tetrahydro-1H-pyrazolo[4,3-c]pyridine-3-carboxamide] | 372 nM | –
16 | CC(C)n1nc(C(=O)NCc2ccc(NC(=O)N(C)C)cc2)c2c1CCN(c1ccc(C(=O)N3CCCOCC3)cn1)C2 [Example 195, 5-(5-(1,4-oxazepane-4-carbonyl)pyridin-2-yl)-N-(4-(3,3-dimethylureido)benzyl)-1-isopropyl-4,5,6,7-tetrahydro-1H-pyrazolo[4,3-c]pyridine-3-carboxamide] | 164 nM | –
